# Data taken from patent US20230159469A1, “NOVEL PHTHALAZINE DERIVATIVE HAVING ECTONUCLOEOTIDE PYROPHOSPHATASE/PHOSPHODIESTE RASE INHIBITORY ACTIVITY, AND USE THEREOF” (TXINNO BIOSCIENCE INC., priority 2020, published 2023).
# Structures can show the parent of a compound that is named as a salt.
# Biological target: T1, human recombinant ENPP1 (Homo sapiens, UniProt P22413)
# T1 construct: purchased R & D systems
# T1 sequence (P22413 1-925): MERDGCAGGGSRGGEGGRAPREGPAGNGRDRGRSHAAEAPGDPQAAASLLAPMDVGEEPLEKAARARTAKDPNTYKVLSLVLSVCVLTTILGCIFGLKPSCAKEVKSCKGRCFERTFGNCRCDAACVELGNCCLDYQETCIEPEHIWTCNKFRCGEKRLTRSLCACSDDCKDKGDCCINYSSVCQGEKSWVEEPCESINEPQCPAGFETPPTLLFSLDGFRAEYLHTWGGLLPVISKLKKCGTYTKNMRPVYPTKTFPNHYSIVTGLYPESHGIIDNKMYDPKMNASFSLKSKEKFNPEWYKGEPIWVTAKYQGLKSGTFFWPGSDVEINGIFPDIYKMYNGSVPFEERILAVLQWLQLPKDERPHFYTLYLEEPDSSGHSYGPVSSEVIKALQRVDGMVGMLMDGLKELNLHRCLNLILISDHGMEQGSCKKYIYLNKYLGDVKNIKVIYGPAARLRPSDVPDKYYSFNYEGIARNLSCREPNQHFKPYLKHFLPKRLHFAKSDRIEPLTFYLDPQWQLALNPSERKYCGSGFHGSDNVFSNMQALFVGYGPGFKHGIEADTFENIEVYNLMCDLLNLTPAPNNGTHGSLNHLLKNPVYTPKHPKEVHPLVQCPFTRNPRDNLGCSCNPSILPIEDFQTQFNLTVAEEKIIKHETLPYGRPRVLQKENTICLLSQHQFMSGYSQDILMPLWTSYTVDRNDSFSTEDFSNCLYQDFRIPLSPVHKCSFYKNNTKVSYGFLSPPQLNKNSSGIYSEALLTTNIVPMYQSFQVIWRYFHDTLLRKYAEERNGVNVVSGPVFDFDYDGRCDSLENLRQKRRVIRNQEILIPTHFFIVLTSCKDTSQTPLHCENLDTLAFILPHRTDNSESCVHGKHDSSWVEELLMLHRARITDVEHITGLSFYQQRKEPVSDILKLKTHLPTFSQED
# Assay: ENPP1 enzyme assay with cGAMP substrate (AMP-Glo luminescence)
# Format: biochemical
# Details: human recombinant ENPP1 3 ng/reaction, cGAMP 5 μM, 37° C. 90 minutes, read-out: Enzymatic activity (ENPP1 IC50)
# Method in brief: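 Human ENPP1 hydrolysis of 5 μM cGAMP was run for 90 min at 37° C in 50 mM Tris pH 8.5, 250 mM NaCl, 0.5 mM CaCl2, 1 μM ZnCl2, 5% glycerol, 1% DMSO. AMP product was quantified by AMP-Glo luminescence; IC50 came from 3-parameter fits of % residual activity, averaged over at least two runs.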
row,SMILES,IC50
1,"Cn1nc(-c2ccc(CS(=O)(=O)N3CCOCC3)cc2)c2ccccc2c1=O [Example 201, 2-methyl-4-(4-((morpholinosulfonyl)methyl)phenyl)phthalazin-1 (2H)-one]",> 10 µM
2,COc1cc2c(Cc3cccc(Br)c3)n[nH]c(=O)c2cc1OC [Example 193],> 10 µM
3,CC(C)(C)OC(=O)NCc1cccc(-c2n[nH]c(=O)c3ccccc23)c1 [Compound No. 5],> 10 µM
4,"COc1cc2c(Cc3cccc(NC(=O)OC(C)(C)C)c3)n[nH]c(=O)c2cc1OC [Compound No. 145, tert-butyl (3-((6,7-dimethoxy-4-oxo-3,4-dihydrophthalazin-1-yl)methyl)phenyl)carbamate]",> 10 µM
5,"CN(c1ccc(Cc2n[nH]c(=O)c3ccccc23)cc1)S(=O)(=O)NC(=O)OC(C)(C)C [Example 173, tert-butyl N-methyl-N-(4-((4-oxo-3,4-dihydrophthalazin-1-yl)methyl)phenyl)sulfamoyl carbamate]",> 10 µM
6,"CC(C)(C)OC(=O)Nc1cccc(-c2nn(Cc3ccccc3)c(=O)c3ccccc23)c1 [Compound No. 4, tert-butyl (3(3-benzyl-4-oxo-3,4-dihydrophthalazin-1-yl)phenyl)carbamate]",> 10 µM
7,"COc1cc2c(Cc3ccc(NC(=O)OC(C)(C)C)cc3)n[nH]c(=O)c2cc1OC [Compound No. 149, tert-butyl (4-((6,7-dimethoxy-4-oxo-3,4-dihydrophthalazin-1-yl)methyl)phenyl)carbamate]",> 10 µM
8,"COc1cc2c(Cc3ccc4c(c3)CCN4)nn(C)c(=O)c2cc1OC [Example 166, 4-(indolin-5-yl-methyl)-6,7-dimethoxy-2-methylphthalazin-1(2H)-one hydrochloride]",> 10 µM
9,"COc1cc2c(Cc3ccc(N)cc3)n[nH]c(=O)c2cc1OC [Example 160, 4-(4-aminobenzyl)-6,7-dimethoxyphthalazin-1(2H)-one hydrochloride]",> 10 µM
10,"CNc1ccc(Cc2n[nH]c(=O)c3cc(OC)c(OC)cc23)cc1 [Example 163, 6,7-dimethoxy-4-(4-(methylamino)benzyl)phthalazin-1(2H) -one hydrochloride]",> 10 µM
11,"COc1ccc2c(=O)n(C)nc(-c3ccc(CNS(N)(=O)=O)cc3)c2c1 [Compound No. 105, N-(4-(7-methoxy-3-methyl-4-oxo-3,4-dihydrophthalazin-1-yl)benzyl)sulfamide hydrochloride]",1 to 10 µM
12,"CN(c1ccc(Cc2n[nH]c(=O)c3ccccc23)cc1)S(N)(=O)=O [Example 184, N-methyl-N-(4-((4-oxo-3,4-dihydrophthalazin-1-yl)methyl)phenyl)sulfamide hydrochloride]",1 to 10 µM
13,"Cn1nc(-c2cccc(NC(=O)OC(C)(C)C)c2)c2ccccc2c1=O [Compound No. 3, tert-butyl (3(3-methyl-4-oxo-3,4-dihydrophthalazin-1-yl)phenyl)carbamate]",> 10 µM
14,"CC(C)(C)OC(=O)NS(=O)(=O)NCc1ccc(-c2nn(Cc3ccc(F)cc3)c(=O)c3ccccc23)cc1 [Compound No. 71, tert-butyl (N-(4-(3-(4-fluorobenzyl)-4-oxo-3,4-dihydrophthalazin-1-yl)benzyl)sulfamoyl)carbamate]",> 10 µM
15,"Cc1ccc(S(=O)(=O)NCc2ccc(-c3n[nH]c(=O)c4ccccc34)cc2)cc1 [Example 197, 4-methyl-N-(4-(4-oxo-3,4-dihydrophthalazin-1-yl)benzyl)benzenesulfonamide]",> 10 µM
16,"COc1cc2c(N3CCC(CNS(=O)(=O)NC(=O)OC(C)(C)C)CC3)n[nH]c(=O)c2cc1OC [Compound No. 137, tert-butyl N-((1-(6,7-dimethoxy-4-oxo-3,4-dihydrophthalazin-1-yl)piperidin-4-yl)methyl)sulfamoyl carbamate]",> 10 µM
17,"Cn1nc(-c2ccc3c(c2)CCN(C(=O)OC(C)(C)C)C3)c2ccccc2c1=O [Compound No. 27, tert-butyl-6-(3-methyl-4-oxo-3,4-dihydrophthalazin-1-yl)-3,4-dihydroisoquinoline-2(1H)-carboxylate]",> 10 µM
18,"CC(C)(C)OC(=O)NS(=O)(=O)NCc1ccc(-c2n[nH]c(=O)c3ccccc23)cc1C(F)(F)F [Compound No. 81, tert-butyl N-(4-(4-oxo-3,4-dihydrophthalazin-1-yl)-2-(trifluoromethyl)benzyl)sulfamoyl carbamate]",> 10 µM
19,"CC(C)(NS(N)(=O)=O)c1ccc(-c2n[nH]c(=O)c3ccccc23)cc1 [Compound No. 125, N-(2-(4-(4-oxo-3,4-dihydrophthalazin-1-yl)phenyl)propan-2-yl)sulfamide hydrochloride]",1 to 10 µM
20,"COc1cc2c(-c3ccc(CNS(N)(=O)=O)cc3C(F)(F)F)n[nH]c(=O)c2cc1OC [Compound No. 116, hydrochloride]",1 to 10 µM
21,"NS(=O)(=O)N1CCc2cc(-c3n[nH]c(=O)c4ccccc34)ccc2C1 [Compound No. 128, 6-(4-oxo-3,4-dihydrophthalazin-1-yl-3,4-dihydroisoquinoline-2(1H)-sulfonamide hydrochloride]",1 to 10 µM
22,"Cn1nc(-c2ccc3c(c2)CCN(S(N)(=O)=O)C3)c2ccccc2c1=O [Compound No. 129, 6-(3-methyl-4-oxo-3,4-dihydrophthalazin-1-yl)-3,4-dihydroisoquinoline-2(1H)-sulfonamide hydrochloride]",1 to 10 µM

# More lines, now with the values ahead:
row,IC50,SMILES
1,< 1 µM,"NS(=O)(=O)NCc1ccc(-c2n[nH]c(=O)c3ccccc23)cc1 [Compound No. 96, N-(4-(4-oxo-3,4-dihydrophthalazin-1-yl)benzyl)sulfamide hydrochloride]"
2,1 to 10 µM,"NS(=O)(=O)NCc1ccc(-c2nn(Cc3ccccc3)c(=O)c3ccccc23)cc1 [Compound No. 101, N-(4-(3-benzyl-4-oxo-3,4-dihydrophthalazin-1-yl)benzyl)sulfamide hydrochloride]"
3,< 1 µM,"COc1cc2c(Cc3ccc4c(c3)CCN4S(N)(=O)=O)nn(C)c(=O)c2cc1OC [Example 188, 5-((6,7-dimethoxy-3-methyl-4-oxo-3,4-dihydrophthalazin-1-yl)methyl)indoline-1-sulfonamide hydrochloride]"
4,< 1 µM,"NS(=O)(=O)Nc1ccc(Cc2n[nH]c(=O)c3ccccc23)cc1 [Example 180, N-(4-((4-oxo-3,4-dihydrophthalazin-1-yl)methyl)phenyl)sulfamide hydrochloride]"
5,1 to 10 µM,"COc1cc2c(-c3ccc(CNS(N)(=O)=O)c(C(F)(F)F)c3)n[nH]c(=O)c2cc1OC [Compound No. 119, hydrochloride]"
6,1 to 10 µM,"COc1cc2c(-c3ccc4c(c3)CCNC4)nn(C)c(=O)c2cc1OC [Compound No. 58, 6,7-dimethoxy-2-methyl-4-(1,2,3,4-tetrahydroisoquinolin-6-yl)phthalazin-1(2H)-one hydrochloride]"
7,1 to 10 µM,"NCc1ccc(-c2nn(-c3ccccc3)c(=O)c3ccccc23)cc1 [Compound No. 40, 4-(4-aminomethyl)phenyl)-2-phenylphthalazin-1(2H)-one hydrochloride]"
8,1 to 10 µM,"NS(=O)(=O)Nc1ccc(-c2n[nH]c(=O)c3ccccc23)cc1 [Compound No. 91, N-(4-(4-oxo-3,4-dihydrophthalazin-1-yl)phenyl)sulfamide]"
9,< 1 µM,"COc1cc2c(Cc3ccc(NS(N)(=O)=O)cc3)n[nH]c(=O)c2cc1OC [Example 182, N-(4-((6,7-dimethoxy-4-oxo-3,4-dihydrophthalazin-1-yl)methyl)phenyl)sulfamide hydrochloride]"
10,< 1 µM,"NS(=O)(=O)NCc1ccc(-c2n[nH]c(=O)c3ccccc23)cc1C(F)(F)F [Compound No. 126, N-(4-(4-oxo-3,4-dihydrophthalazin-1-yl)-2-(trifluoromethyl)benzyl)sulfamide hydrochloride]"
11,< 1 µM,"Cn1nc(Cc2ccc(NS(N)(=O)=O)cc2)c2ccccc2c1=O [Example 181, N-(4-((3-methyl-4-oxo-3,4-dihydrophthalazin-1-yl)methyl)phenyl)sulfamide hydrochloride]"
12,< 1 µM,"NS(=O)(=O)Nc1ccc(Cc2n[nH]c(=O)c3ccccc23)c(C(F)(F)F)c1 [Example 191, N-(3-(trifluorobenzylmethyl)-4-((4-oxo-3,4-dihydrophthalazin-1-yl)methyl)phenyl)sulfamide hydrochloride]"
13,< 1 µM,"Cn1nc(-c2cccc(NS(N)(=O)=O)c2)c2ccccc2c1=O [Compound No. 88, N-(3-(3-methyl-4-oxo-3,4-dihydrophthalazin-1-yl)phenyl)sulfamide hydrochloride]"
